# Data reported in ChEMBL document CHEMBL4000149, “The effect of glycine replacement with flexible ω-amino acids on the antimicrobial and haemolytic activity of an amphipathic cyclic heptapeptide” (Eur J Med Chem, 2015).
# Square brackets hold non-standard residues; d marks the D form. Peptide text beside a SMILES is read from it. ξ: configuration not given here. 2Nal = N[C@@H](Cc1ccc2ccccc2c1)C(=O)O; Cha = N[C@@H](CC1CCCCC1)C(=O)O; ξNle = CCCCC(N)C(=O)O
# Key:
# [1] = Toxicity in human erythrocytes assessed as hemolysis at 150 uM after 1 hr; type: cell-based, Erythrocyte; conditions: read-out: Activity
# Klebsiella pneumoniae = experiment: Antimicrobial activity against multidrug-resistant Klebsiella pneumoniae ATCC 700603 by tube dilution method; type: functional
# Escherichia coli = experiment: Antimicrobial activity against Escherichia coli ATCC 25922 by tube dilution method; type: functional
# Acinetobacter baumannii = experiment: Antimicrobial activity against multidrug-resistant Acinetobacter baumannii ATCC BAA-1605 by tube dilution method; type: functional
# Candida albicans = experiment: Antifungal activity against Candida albicans ATCC 200955 by tube dilution method; type: functional
# Enterococcus faecium = experiment: Antimicrobial activity against vancomycin-resistant Enterococcus faecium ATCC 700221 by tube dilution method; type: functional
# Pseudomonas aeruginosa = experiment: Antimicrobial activity against Pseudomonas aeruginosa ATCC 27853 by tube dilution method; type: functional
# Staphylococcus aureus = experiment: Antimicrobial activity against methicillin-resistant Staphylococcus aureus ATCC 33591 by tube dilution method; type: functional
# [2] = Toxicity in human erythrocytes assessed as hemolysis after 1 hr; type: cell-based, Erythrocyte
SMILES,"hemolysis at 1 h, 150 µM [1] [%]",MIC (Klebsiella pneumoniae) [µM],MIC (Escherichia coli) [µM],MIC (Acinetobacter baumannii) [µM],MIC (Candida albicans) [µM],MIC (Enterococcus faecium) [µM],MIC (Pseudomonas aeruginosa) [µM],MIC (Staphylococcus aureus) [µM],EC50 at 1 hr [2] [µM]
CC(C)C[C@@H]1NC(=O)CNC(=O)[C@H](Cc2ccc3ccccc3c2)NC(=O)[C@H](CCCNC(=N)N)NC(=O)[C@H](CC(C)C)NC(=O)[C@H](Cc2ccc3ccccc3c2)NC(=O)[C@H](CCCCN)NC1=O (cyclo([2Nal]GLK[2Nal]LR)),14,> 128,128,> 128,32,16,128,32,> 150
CC(C)C[C@@H]1NC(=O)CNC(=O)[C@H](Cc2ccc3ccccc3c2)NC(=O)[C@H](CCCCN)NC(=O)[C@H](CC(C)C)NC(=O)[C@H](Cc2ccc3ccccc3c2)NC(=O)[C@H](CCCNC(=N)N)NC1=O (cyclo([2Nal]GLR[2Nal]LK)),19,> 128,128,> 128,32,16,128,32,> 150
CC(C)C[C@@H]1NC(=O)CNC(=O)[C@H](Cc2ccc3ccccc3c2)NC(=O)[C@H](CCCNC(=N)N)NC(=O)[C@@H]2CCCN2C(=O)[C@H](Cc2ccc3ccccc3c2)NC(=O)[C@H](CCCNC(=N)N)NC1=O (cyclo([2Nal]GLR[2Nal]PR)),< 8,> 128,> 128,> 128,128,32,> 128,64,> 150
CC(C)C[C@@H]1NC(=O)CNC(=O)[C@H](Cc2ccc3ccccc3c2)NC(=O)[C@H](CCCNC(=N)N)NC(=O)[C@H]([C@@H](C)O)NC(=O)[C@H](Cc2ccc3ccccc3c2)NC(=O)[C@H](CCCNC(=N)N)NC1=O (cyclo([2Nal]GLR[2Nal]TR)),< 8,> 128,128,> 128,128,128,> 128,128,> 150
CCCCC1NC(=O)[C@H](Cc2ccc3ccccc3c2)NC(=O)[C@H](CCCNC(=N)N)NC(=O)[C@H](CC(C)C)NC(=O)CNC(=O)[C@H](Cc2ccc3ccccc3c2)NC(=O)[C@H](CCCNC(=N)N)NC1=O (stereo partly specified) (cyclo([2Nal]GLR[2Nal][ξNle]R)),35,> 128,> 128,> 128,> 128,16,> 128,32,> 150
CC(C)C[C@@H]1NC(=O)[C@H](Cc2ccc3ccccc3c2)NC(=O)[C@H](CCCNC(=N)N)NC(=O)[C@@H]2CCCN2C(=O)CNC(=O)[C@H](Cc2ccc3ccccc3c2)NC(=O)[C@H](CCCNC(=N)N)NC1=O (cyclo([2Nal]GPR[2Nal]LR)),< 8,> 128,> 128,> 128,64,16,128,64,> 150
CC(C)C[C@@H]1NC(=O)[C@H](Cc2ccc3ccccc3c2)NC(=O)[C@H](CCCNC(=N)N)NC(=O)[C@H](CCC(N)=O)NC(=O)CNC(=O)[C@H](Cc2ccc3ccccc3c2)NC(=O)[C@H](CCCNC(=N)N)NC1=O (cyclo([2Nal]GQR[2Nal]LR)),< 8,> 128,> 128,> 128,128,16,> 128,128,> 150
CC(C)C[C@@H]1NC(=O)[C@H](Cc2ccc3ccccc3c2)NC(=O)[C@H](CCCNC(=N)N)NC(=O)[C@H]([C@@H](C)O)NC(=O)CNC(=O)[C@H](Cc2ccc3ccccc3c2)NC(=O)[C@H](CCCNC(=N)N)NC1=O (cyclo([2Nal]GTR[2Nal]LR)),< 8,> 128,> 128,> 128,128,64,> 128,32,> 150
CC(C)C[C@@H]1NC(=O)[C@H](Cc2ccc3ccccc3c2)NC(=O)[C@H](CCCNC(=N)N)NC(=O)[C@H](CC2CCCCC2)NC(=O)CNC(=O)[C@H](Cc2ccc3ccccc3c2)NC(=O)[C@H](CCCNC(=N)N)NC1=O (cyclo([2Nal]G[Cha]R[2Nal]LR)),99,128,32,64,32,16,128,16,28
